Laboratory results reported in patent US6794396B2, “Substituted pyridines useful for inhibiting cholesteryl ester transfer protein activity” (Pharmacia Corporation, priority 1998, dated 2004).
pIC50: −log10 of the molar value.

Columns and labels:
CETP [1] = experiment: Chronic inhibition of CETP activity in vivo: Alzet pump infusion, serum LDL/HDL cholesterol profiles by FPLC; design: species or system golden Syrian hamster
Description: (§1) Chronic inhibition of CETP can be achieved by administration of Dimethyl 5,5′-dithiobis[2-difluoromethyl)-4-(2-methylpropyl)-6-(trifluoromethyl)-3-pyridinecarboxylate] (Compound 181) to hamsters using Alzet pump delivery of Compound 181 into the jugular veins of hamsters. Inhibition of CETP should lead to an increase in HDL cholesterol with a concomitant decrease in LDL cholesterol. This can be determined by filtering serum obtained at different time intervals after initiation of inhibitor infusion and quantitating the amount of cholesterol in the LDL and HDL peaks, respectively. In addition the activity of CETP in the serum can be assessed in an ex vivo CETP activity assay.
Male golden Syrian hamsters were maintained on a diet of normal rodent chow enriched with 0.24% cholesterol for at least 2 weeks prior to study. On Day 1, the hamsters were anesthetized with pentobarbital. An indwelling catheter was inserted into the jugular vein and exteriorized onto the back of the neck. The hamsters received […] of Compound 181 (38.5 mg/kg) in a 2% ethanol:98% PEG400 vehicle, or the 2% ethanol:98% PEG400 vehicle alone. An Alzet pump was then attached to the jugular catheter which delivered a steady infusion of 24 μl/day for a dose of 1.3 mg/day(9.2 mg/kg/day). The hamsters received the vehicle (2% ETOH:98% PEG400) or Compound 181 for 8 days. The hamsters were maintained for 12 days. Blood samples were taken on day 1 (pre-bleed) at the time of surgery, and on days 5, 7, 8 and 12. Fast Protein Liquid Chromatography (FPLC) on tandem Superose 6 columns of pooled hamster serum was performed to obtain cholesterol profiles for the two experimental groups.
(§2) Serum cholesterol profiles were determined on pooled sera from each group. Total serum cholesterol and CETP activity were determined on individual serum samples. In hamsters administered Compound 181 chronically, there was a 30% reduction and 26% increase in LDL cholesterol and HDL cholesterol concentrations, respectively, compared to the vehicle group at Day 5. The decrease in LDL and increase in HDL persisted until Day 8 when the Alzet pump was exhausted. […] Therefore, it would appear that for every percent reduction in CETP activity determined by the ex vivo assay, there was a 2-3% decrease in LDL cholesterol or increase in HDL cholesterol concentrations.

CETP [2] = target: T1, CETP (Homo sapiens, UniProt P11597); experiment: CETP activity in vitro: transfer of [3H]CE from HDL donor to LDL acceptor particles; assay type: biochemical; details: Table 5, compounds of formula T-5; read-out: IC50
T1 construct: made in house; host or cells: CHO cells (serum-free conditioned medium)
T1 sequence (P11597 18-493): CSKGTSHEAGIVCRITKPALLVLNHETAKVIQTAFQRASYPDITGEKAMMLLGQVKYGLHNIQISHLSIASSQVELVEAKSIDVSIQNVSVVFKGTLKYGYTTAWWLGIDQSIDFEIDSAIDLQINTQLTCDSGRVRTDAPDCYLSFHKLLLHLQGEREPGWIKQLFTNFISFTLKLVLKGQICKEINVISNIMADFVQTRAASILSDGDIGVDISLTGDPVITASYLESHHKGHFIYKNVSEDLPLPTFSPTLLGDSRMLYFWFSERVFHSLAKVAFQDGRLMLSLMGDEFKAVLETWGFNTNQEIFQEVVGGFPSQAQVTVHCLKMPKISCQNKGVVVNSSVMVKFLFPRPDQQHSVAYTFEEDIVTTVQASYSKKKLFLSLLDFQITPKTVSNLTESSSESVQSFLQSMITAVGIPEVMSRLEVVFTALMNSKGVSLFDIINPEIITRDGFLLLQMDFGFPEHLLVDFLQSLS
Outline: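 Transfer of radiolabelled cholesteryl ester from HDL to LDL was followed over 2 h at 37 °C in Tris buffer (pH 7.4, 150 mM NaCl, 2 mM EDTA, 1% BSA), using CETP secreted by transfected CHO cells. Radioactivity in dextran sulfate/Mg-precipitated LDL was measured by scintillation counting, giving IC50.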

CETP [3] = experiment: Ex vivo CETP activity assay on serum of chronically infused hamsters; assay type: in vivo, golden Syrian hamster
Description: as §1, §2

[4] = Day 1 (pre-bleed), pooled serum
[5] = Day 12, after pump exhausted at Day 8, pooled serum

COC(=O)c1c(C(F)F)nc(C(F)(F)F)c(SSc2c(C(F)(F)F)nc(C(F)F)c(C(=O)OC)c2CC(C)C)c1CC(C)C [Compound 181, Dimethyl 5,5′-Dithiobis[2-(difluoromethyl)-4-(2-methylpropyl)-6-(trifluoromethyl)-3-pyridinecarboxylate]]
HDL cholesterol concentration, % of cholesterol concentration in vehicle group (CETP [1]; [4]): 105% | LDL cholesterol concentration, % of cholesterol concentration in vehicle group (CETP [1]; [4]): 111% | increase in HDL cholesterol concentration compared to the vehicle group (CETP [1]; Day 5): 26% | reduction in LDL cholesterol concentration compared to the vehicle group (CETP [1]; Day 5): 30% | HDL cholesterol concentration, % of cholesterol concentration in vehicle group (CETP [1]; [5]): 114% | LDL cholesterol concentration, % of cholesterol concentration in vehicle group (CETP [1]; [5]): 90% | pIC50 (CETP [2]): 5.82 | average reduction in CETP activity by ex vivo assay (CETP [3]; Days 5 and 8): 10% | CETP activity by ex vivo assay (CETP [3]; day 12): return to vehicle control level
